Data taken from the NIST ThermoML archive (doi:10.1021/je800224k).

Settings: Liquid

CCCCCCCC[n+]1ccn(C)c1.F[P-](F)(F)(F)(F)F [1-octyl-3-methylimidazolium hexafluorophosphate]
Settings	mass density [kg/m3]
293.15 K, 101.33 kPa, Vibrating tube method	1240.8
312.8 K, 10000 kPa, Bellows volumetry	1230
312.8 K, 20000 kPa, Bellows volumetry	1236
312.8 K, 30000 kPa, Bellows volumetry	1241
312.8 K, 40000 kPa, Bellows volumetry	1247
312.8 K, 50000 kPa, Bellows volumetry	1252
312.8 K, 60000 kPa, Bellows volumetry	1257
312.8 K, 70000 kPa, Bellows volumetry	1261
312.8 K, 80000 kPa, Bellows volumetry	1266
312.8 K, 90000 kPa, Bellows volumetry	1270
312.8 K, 100000 kPa, Bellows volumetry	1275
312.8 K, 110000 kPa, Bellows volumetry	1279
312.8 K, 120000 kPa, Bellows volumetry	1283
312.8 K, 130000 kPa, Bellows volumetry	1287
312.8 K, 140000 kPa, Bellows volumetry	1291
312.8 K, 150000 kPa, Bellows volumetry	1294
312.8 K, 160000 kPa, Bellows volumetry	1298
312.8 K, 170000 kPa, Bellows volumetry	1302
312.8 K, 180000 kPa, Bellows volumetry	1305
312.8 K, 190000 kPa, Bellows volumetry	1309
312.8 K, 200000 kPa, Bellows volumetry	1312
313.15 K, 101.33 kPa, Vibrating tube method	1225
332.6 K, 10000 kPa, Bellows volumetry	1215
332.6 K, 20000 kPa, Bellows volumetry	1221
332.6 K, 30000 kPa, Bellows volumetry	1227
332.6 K, 40000 kPa, Bellows volumetry	1233
332.6 K, 50000 kPa, Bellows volumetry	1238
332.6 K, 60000 kPa, Bellows volumetry	1243
332.6 K, 70000 kPa, Bellows volumetry	1248
332.6 K, 80000 kPa, Bellows volumetry	1253
332.6 K, 90000 kPa, Bellows volumetry	1257
332.6 K, 100000 kPa, Bellows volumetry	1262
332.6 K, 110000 kPa, Bellows volumetry	1266
332.6 K, 120000 kPa, Bellows volumetry	1270
332.6 K, 130000 kPa, Bellows volumetry	1274
332.6 K, 140000 kPa, Bellows volumetry	1278
332.6 K, 150000 kPa, Bellows volumetry	1282
332.6 K, 160000 kPa, Bellows volumetry	1286
332.6 K, 170000 kPa, Bellows volumetry	1290
332.6 K, 180000 kPa, Bellows volumetry	1293
332.6 K, 190000 kPa, Bellows volumetry	1297
332.6 K, 200000 kPa, Bellows volumetry	1300
333.15 K, 101.33 kPa, Vibrating tube method	1210
352.6 K, 10000 kPa, Bellows volumetry	1200
352.6 K, 20000 kPa, Bellows volumetry	1207
352.6 K, 30000 kPa, Bellows volumetry	1213
352.6 K, 40000 kPa, Bellows volumetry	1219
352.6 K, 50000 kPa, Bellows volumetry	1224
352.6 K, 60000 kPa, Bellows volumetry	1230
352.6 K, 70000 kPa, Bellows volumetry	1235
352.6 K, 80000 kPa, Bellows volumetry	1240
352.6 K, 90000 kPa, Bellows volumetry	1245
352.6 K, 100000 kPa, Bellows volumetry	1249
352.6 K, 110000 kPa, Bellows volumetry	1254
352.6 K, 120000 kPa, Bellows volumetry	1258
352.6 K, 130000 kPa, Bellows volumetry	1262
352.6 K, 140000 kPa, Bellows volumetry	1266
352.6 K, 150000 kPa, Bellows volumetry	1270
352.6 K, 160000 kPa, Bellows volumetry	1274
352.6 K, 170000 kPa, Bellows volumetry	1278
352.6 K, 180000 kPa, Bellows volumetry	1282
352.6 K, 190000 kPa, Bellows volumetry	1286
352.6 K, 200000 kPa, Bellows volumetry	1289
353.15 K, 101.33 kPa, Vibrating tube method	1195.2
372.8 K, 10000 kPa, Bellows volumetry	1186
372.8 K, 20000 kPa, Bellows volumetry	1193
372.8 K, 30000 kPa, Bellows volumetry	1199
372.8 K, 40000 kPa, Bellows volumetry	1205
372.8 K, 50000 kPa, Bellows volumetry	1211
372.8 K, 60000 kPa, Bellows volumetry	1217
372.8 K, 70000 kPa, Bellows volumetry	1222
372.8 K, 80000 kPa, Bellows volumetry	1227
372.8 K, 90000 kPa, Bellows volumetry	1232
372.8 K, 100000 kPa, Bellows volumetry	1237
372.8 K, 110000 kPa, Bellows volumetry	1242
372.8 K, 120000 kPa, Bellows volumetry	1246
372.8 K, 130000 kPa, Bellows volumetry	1250
372.8 K, 140000 kPa, Bellows volumetry	1255
372.8 K, 150000 kPa, Bellows volumetry	1259
372.8 K, 160000 kPa, Bellows volumetry	1263
372.8 K, 170000 kPa, Bellows volumetry	1267
372.8 K, 180000 kPa, Bellows volumetry	1271
372.8 K, 190000 kPa, Bellows volumetry	1274
372.8 K, 200000 kPa, Bellows volumetry	1278
392.8 K, 10000 kPa, Bellows volumetry	1171
392.8 K, 20000 kPa, Bellows volumetry	1179
392.8 K, 30000 kPa, Bellows volumetry	1186
392.8 K, 40000 kPa, Bellows volumetry	1192
392.8 K, 50000 kPa, Bellows volumetry	1198
392.8 K, 60000 kPa, Bellows volumetry	1204
392.8 K, 70000 kPa, Bellows volumetry	1209
392.8 K, 80000 kPa, Bellows volumetry	1215
392.8 K, 90000 kPa, Bellows volumetry	1220
392.8 K, 100000 kPa, Bellows volumetry	1225
392.8 K, 110000 kPa, Bellows volumetry	1230
392.8 K, 120000 kPa, Bellows volumetry	1235
392.8 K, 130000 kPa, Bellows volumetry	1239
392.8 K, 140000 kPa, Bellows volumetry	1243
392.8 K, 150000 kPa, Bellows volumetry	1248
392.8 K, 160000 kPa, Bellows volumetry	1252
392.8 K, 170000 kPa, Bellows volumetry	1256
392.8 K, 180000 kPa, Bellows volumetry	1260
392.8 K, 190000 kPa, Bellows volumetry	1264
392.8 K, 200000 kPa, Bellows volumetry	1268
413 K, 10000 kPa, Bellows volumetry	1157
413 K, 20000 kPa, Bellows volumetry	1165
413 K, 30000 kPa, Bellows volumetry	1172
413 K, 40000 kPa, Bellows volumetry	1179
413 K, 50000 kPa, Bellows volumetry	1185
413 K, 60000 kPa, Bellows volumetry	1191
413 K, 70000 kPa, Bellows volumetry	1197
413 K, 80000 kPa, Bellows volumetry	1203
413 K, 90000 kPa, Bellows volumetry	1208
413 K, 100000 kPa, Bellows volumetry	1213
413 K, 110000 kPa, Bellows volumetry	1218
413 K, 120000 kPa, Bellows volumetry	1223
413 K, 130000 kPa, Bellows volumetry	1228
413 K, 140000 kPa, Bellows volumetry	1232
413 K, 150000 kPa, Bellows volumetry	1237
413 K, 160000 kPa, Bellows volumetry	1241
413 K, 170000 kPa, Bellows volumetry	1245
413 K, 180000 kPa, Bellows volumetry	1249
413 K, 190000 kPa, Bellows volumetry	1253
413 K, 200000 kPa, Bellows volumetry	1257
432.7 K, 10000 kPa, Bellows volumetry	1144
432.7 K, 20000 kPa, Bellows volumetry	1152
432.7 K, 30000 kPa, Bellows volumetry	1159
432.7 K, 40000 kPa, Bellows volumetry	1166
432.7 K, 50000 kPa, Bellows volumetry	1173
432.7 K, 60000 kPa, Bellows volumetry	1179
432.7 K, 70000 kPa, Bellows volumetry	1185
432.7 K, 80000 kPa, Bellows volumetry	1191
432.7 K, 90000 kPa, Bellows volumetry	1197
432.7 K, 100000 kPa, Bellows volumetry	1202
432.7 K, 110000 kPa, Bellows volumetry	1207
432.7 K, 120000 kPa, Bellows volumetry	1212
432.7 K, 130000 kPa, Bellows volumetry	1217
432.7 K, 140000 kPa, Bellows volumetry	1222
432.7 K, 150000 kPa, Bellows volumetry	1226
432.7 K, 160000 kPa, Bellows volumetry	1231
432.7 K, 170000 kPa, Bellows volumetry	1235
432.7 K, 180000 kPa, Bellows volumetry	1239
432.7 K, 190000 kPa, Bellows volumetry	1243
432.7 K, 200000 kPa, Bellows volumetry	1247
452.5 K, 10000 kPa, Bellows volumetry	1130
452.5 K, 20000 kPa, Bellows volumetry	1138
452.5 K, 30000 kPa, Bellows volumetry	1146
452.5 K, 40000 kPa, Bellows volumetry	1153
452.5 K, 50000 kPa, Bellows volumetry	1160
452.5 K, 60000 kPa, Bellows volumetry	1167
452.5 K, 70000 kPa, Bellows volumetry	1173
452.5 K, 80000 kPa, Bellows volumetry	1179
452.5 K, 90000 kPa, Bellows volumetry	1185
452.5 K, 100000 kPa, Bellows volumetry	1191
452.5 K, 110000 kPa, Bellows volumetry	1196
452.5 K, 120000 kPa, Bellows volumetry	1201
452.5 K, 130000 kPa, Bellows volumetry	1206
452.5 K, 140000 kPa, Bellows volumetry	1211
452.5 K, 150000 kPa, Bellows volumetry	1216
452.5 K, 160000 kPa, Bellows volumetry	1220
452.5 K, 170000 kPa, Bellows volumetry	1225
452.5 K, 180000 kPa, Bellows volumetry	1229
452.5 K, 190000 kPa, Bellows volumetry	1233
452.5 K, 200000 kPa, Bellows volumetry	1237
472.3 K, 10000 kPa, Bellows volumetry	1116
472.3 K, 20000 kPa, Bellows volumetry	1125
472.3 K, 30000 kPa, Bellows volumetry	1133
472.3 K, 40000 kPa, Bellows volumetry	1141
472.3 K, 50000 kPa, Bellows volumetry	1148
472.3 K, 60000 kPa, Bellows volumetry	1155
472.3 K, 70000 kPa, Bellows volumetry	1162
472.3 K, 80000 kPa, Bellows volumetry	1168
472.3 K, 90000 kPa, Bellows volumetry	1174
472.3 K, 100000 kPa, Bellows volumetry	1180
472.3 K, 110000 kPa, Bellows volumetry	1185
472.3 K, 120000 kPa, Bellows volumetry	1191
472.3 K, 130000 kPa, Bellows volumetry	1196
472.3 K, 140000 kPa, Bellows volumetry	1201
472.3 K, 150000 kPa, Bellows volumetry	1205
472.3 K, 160000 kPa, Bellows volumetry	1210
472.3 K, 170000 kPa, Bellows volumetry	1215
472.3 K, 180000 kPa, Bellows volumetry	1219
472.3 K, 190000 kPa, Bellows volumetry	1223
472.3 K, 200000 kPa, Bellows volumetry	1228
